Experimental data taken from patent publication EP0160546A2, “Cephalosporin compounds, and their production, and medicaments containing them” (YAMANOUCHI PHARMACEUTICAL CO. LTD., priority 1984, dated 1985).
≈ marks a conversion by molar mass, not a printed value. Like-named read-outs stand apart in the source and are kept apart here.

How the values were obtained:
E. coli NIHJ = assay: Antibacterial activity (minimum effective inhibitory concentration); assay type: cell-based; details: Escherichia coli, read-out: minimum effective inhibitory concentrations
Text: (§1) Antibacterial activities (minimum effective inhbitory concentrations) of compounds of formula I (taken from the following Examples) are shown in the following Table.

[1] = tested on: Kleb. pneumoniae ATCC 10031; assay: as above; assay type: cell-based; details: Klebsiella pneumoniae, ATCC10031, read-out: minimum effective inhibitory concentrations
Text: as §1

[2] = tested on: Ps. aeruginosa NCTC 10490; assay: as above; assay type: cell-based; details: Pseudomonas aeruginosa, NCTC10490, read-out: minimum effective inhibitory concentrations
Text: as §1

Serr. marcescense NY-10 = assay: as above; assay type: cell-based; details: read-out: minimum effective inhibitory concentrations
Text: as §1

[3] = tested on: Staph. epidermidis IID 866; assay: as above; assay type: cell-based; details: Staphylococcus epidermidis, IID866, read-out: minimum effective inhibitory concentrations
Text: as §1

Solubility in water = assay type: physicochemical

| Compound | MIC (E. coli NIHJ; E. coli NIHJ) [µg/mL] | MIC [1] [µg/mL] | MIC [2] [µg/mL] | MIC (Serr. marcescense NY-10; Serr. marcescense NY-10) [µg/mL] | MIC [3] [µg/mL] | solubility (Solubility in water) [mg/mL] | MIC (E. coli NIHJ) [µg/mL] | MIC (Serr. marcescense NY-10) [µg/mL] |
| --- | --- | --- | --- | --- | --- | --- | --- | --- |
| CC(C)(ON=C(C(=O)NC1C(=O)N2C(C(=O)[O-])=C(C[n+]3cc(N)cc(N)c3)CSC12)c1csc(N)n1)C(=O)O (stereo not drawn) [Example 2, (Z)-7-[λ-(2-amino-4 thiazolyl)-λ-(1-carboxy-1-methylethoxyimino)acetamido]--3-(3,5-diamino-1-pyridiniomethyl)-Δ^3-cephem-4-carboxylate] | < 0.2 | < 0.2 | 0.39 (≈ 0.676 µM) | < 0.2 | 1.56 (≈ 2.71 µM) | – | – | – |
| CON=C(C(=O)NC1C(=O)N2C(C(=O)[O-])=C(C[n+]3ccc(N)c(N)c3)CSC12)c1csc(N)n1 (stereo not drawn) [Example 3, (Z)-7-[λ-(2-amino-4-thiazolyl)-λ-(methoxyimino)acetamido]-3-(3,4-diamino-1-pyridiniomethyl)-Δ^3-cephem-4-carboxylate] | < 0.2 | < 0.2 | 1.56 (≈ 3.09 µM) | < 0.2 | 0.2 (≈ 0.396 µM) | – | – | – |
| CO/N=C(\C(=O)N[C@@H]1C(=O)N2C(C(=O)[O-])=C(C[n+]3ccc(OC)c(N)c3)CS[C@H]12)c1csc(N)n1 [Example 5, (Z)-7-[α-(2-amino-4-thiazolyl)-α-methoxyiminoacetamido,]-3-(3-amino-4-methoxypyridiniomethyl)-Δ^3-cephem-4-carboxylate] | < 0.2 | < 0.2 | 1.56 (≈ 3 µM) | < 0.2 | 0.2 (≈ 0.385 µM) | > 230 | – | – |
| CO/N=C(\C(=O)N[C@@H]1C(=O)N2C(C(=O)[O-])=C(C[n+]3ccc(OCC(O)CO)c(N)c3)CS[C@H]12)c1csc(N)n1 (stereo partly drawn) [Example 6, (Z ) -7-[α-(2-amino-4-thiazolyl)-α-methoxyiminoacetamido]-3-[3-amino-4-(2,3-dihydroxypropyloxy)pyridiniomethyl]-Δ^3-cephem-4-carboxylate] | < 0.2 | < 0.2 | 1.56 (≈ 2.69 µM) | < 0.2 | 0.78 (≈ 1.35 µM) | – | – | – |
| CO/N=C(\C(=O)N[C@@H]1C(=O)N2C(C(=O)[O-])=C(C[n+]3ccc(C)c(N)c3)CS[C@H]12)c1csc(N)n1 [Example 9, (Z)-1-[α-(2-amino-4-thiazolyl)-α-methoxyiminoacet--amido]-3-(3-amino-4-methylpyridiniomethyl)-Δ^3-cephem-4-carboxylic acid] | < 0.2 | < 0.2 | 1.56 (≈ 3.1 µM) | < 0.2 | 0.2 (≈ 0.397 µM) | – | – | – |
| CON=C(C(=O)NC1C(=O)N2C(C(=O)[O-])=C(C[n+]3ccc4c(c3)N(OC)C(=O)CO4)CSC12)c1csc(N)n1 (stereo not drawn) [Example 10] | < 0.2 | < 0.2 | 0.39 (≈ 0.678 µM) | 0.2 (≈ 0.347 µM) | 6.25 (≈ 10.9 µM) | – | – | – |
| CON=C(C(=O)NC1C(=O)N2C(C(=O)[O-])=C(C[n+]3ccc4c(c3)NC(=O)CO4)CSC12)c1csc(N)n1 (stereo not drawn) [Example 11, (Z)-7-[α-(2-amino-4-thiazolyl)-α-methoxyimino-acetamido]-3-[[6-(3-oxo-3,4-dihydro-2H-pyrido[4,3-b]-1,4-oxazinio)]methyl -Δ^3-cephem-4-carboxylate] | < 0.2 | < 0.2 | 1.56 (≈ 2.86 µM) | < 0.2 | 0.78 (≈ 1.43 µM) | – | – | – |
| CON=C(C(=O)NC1C(=O)N2C(C(=O)[O-])=C(C[n+]3ccc4c(c3)N(O)C(=O)CO4)CSC12)c1csc(N)n1 (stereo not drawn) [Example 12, (Z)-7-[α-(2-amino-4-thiazolyl)-α-methoxyiminoacetamido]-3-[[6-(4-hydroxy-3-oxo-3,4-dihydro-2H-pyrido[4,3-b]-1,4-oxazinio)]methyl]-Δ^3-cephem-4-carboxylate] | < 0.2 | < 0.2 | 1.56 (≈ 2.78 µM) | < 0.2 | 1.56 (≈ 2.78 µM) | – | – | – |
| CON=C(C(=O)NC1C(=O)N2C(C(=O)[O-])=C(C[n+]3ccc4c(c3)NCCO4)CSC12)c1csc(N)n1 (stereo not drawn) [Example 13, (Z)-7-[α-(2-amino-4-thiazolyl) -α-methoxyiminoacetamido]-3-[[6-(3,4-dihydro-2H-pyrido[4,3-b1-1,4-oxazinio)]methyl]-Δ^3-cephem-4-carboxylate] | < 0.2 | < 0.2 | 0.78 (≈ 1.47 µM) | < 0.2 | 0.39 (≈ 0.734 µM) | – | – | – |
| CC(C)(O/N=C(\C(=O)N[C@@H]1C(=O)N2C(C(=O)[O-])=C(C[n+]3ccccc3)CS[C@H]12)c1csc(N)n1)C(=O)O [cefta-zidime, reference compound] | – | < 0.2 | 0.78 (≈ 1.43 µM) | – | 3.13 (≈ 5.73 µM) | – | < 0.2 | < 0.2 |
